Source: ChEMBL document CHEMBL1137914, “Optimizing the antibacterial activity of a lead structure discovered by "SAR by MS" technology” (Bioorg Med Chem Lett, 2004)

Key:
Escherichia coli [1] = experiment: Antibacterial activity against Escherichia coli was determined at 100 uM; assay type: functional
Escherichia coli [2] = experiment: (§1) In vitro dissociation constant of compound required for inhibition of Escherichia coli translation was determined; assay type: functional, organism-based
Staphylococcus aureus [3] = experiment: Antibacterial activity against Staphylococcus aureus was determined at 100 uM; assay type: functional
Streptococcus pyogenes = experiment: Minimal inhibitory concentration required against Streptococcus pyogenes was determined; values ranges from 3-6
Staphylococcus aureus [4] = experiment: Minimal inhibitory concentration required against Staphylococcus aureus ATCC 13709 was determined; values ranges from 3-6; assay type: functional
Proteus vulgaris = experiment: Minimal inhibitory concentration required against Proteus vulgaris was determined; values ranges from 50-100
Enterococcus faecalis = experiment: Minimal inhibitory concentration required against Enterococcus faecalis was determined; values ranges from 3-6
Escherichia coli [5] = experiment: Minimal inhibitory concentration required against Escherichia coli ATCC 25922 was determined; values ranges from 6-13; assay type: functional
Escherichia coli [6] = experiment: as §1; assay type: functional
Staphylococcus aureus [7] = experiment: Minimal inhibitory concentration required against Staphylococcus aureus ATCC 13709 was determined; values ranges from 50-100; assay type: functional
Escherichia coli [8] = experiment: Minimal inhibitory concentration required against Escherichia coli ATCC 25922 was determined; values ranges from 25-50; assay type: functional
Escherichia coli [9] = experiment: In vitro dissociation constant of compound required for inhibition of Escherichia coli translation by 50% was determined; assay type: functional
Staphylococcus aureus [10] = experiment: Minimal inhibitory concentration required against Staphylococcus aureus ATCC 13709 was determined; values ranges from […]; assay type: functional
Escherichia coli [11] = experiment: Minimal inhibitory concentration required against Escherichia coli ATCC 25922 was determined; values ranges from 13-25; assay type: functional
Staphylococcus aureus [12] = experiment: Minimal inhibitory concentration required against Staphylococcus aureus ATCC 13709 was determined; assay type: functional

CC(=O)Nc1cccc(-c2ccc(C(=O)NC(C(=O)N3CCNCC3)c3ccc(OCCCN(C)C)cc3)o2)c1 (configuration not stated)
inhibition at 100 µM (Escherichia coli [1]): < 75%
IC50 (Escherichia coli [2]): > 100 µM
inhibition at 100 µM (Staphylococcus aureus [3]): < 75%

NCC[C@@H](NC(=O)c1ccc(-c2cccc(N)c2)o1)C(=O)N1CCNCC1
inhibition at 100 µM (Escherichia coli [1]): < 75%
IC50 (Escherichia coli [2]): > 100 µM
inhibition at 100 µM (Staphylococcus aureus [3]): < 75%

Cc1cc(Cl)c2cc(C(=O)Nc3cccc(-c4ccc(C(=O)NC(C(=O)N5CCNCC5)c5ccc(OCCCN(C)C)cc5)o4)c3)ccc2n1 (configuration not stated)
inhibition at 100 µM (Escherichia coli [1]): < 75%
IC50 (Escherichia coli [2]): 2 µM
inhibition at 100 µM (Staphylococcus aureus [3]): < 75%

CN(C)CCCOc1ccc(C(NC(=O)c2ccc(-c3cccc(NC(=O)C4CCCCC4)c3)o2)C(=O)N2CCNCC2)cc1 (configuration not stated)
inhibition at 100 µM (Escherichia coli [1]): < 75%
IC50 (Escherichia coli [2]): > 100 µM
inhibition at 100 µM (Staphylococcus aureus [3]): < 75%

NCC[C@@H](NC(=O)c1ccc(-c2cccc(NS(=O)(=O)c3ccc4nc(O)c(O)nc4c3)c2)o1)C(=O)N1CCNCC1
inhibition at 100 µM (Escherichia coli [1]): < 75%
IC50 (Escherichia coli [2]): > 100 µM
inhibition at 100 µM (Staphylococcus aureus [3]): < 75%

CN(C)CCCOc1ccc(C(NC(=O)c2ccc(-c3cccc(NC(=O)c4ccc(-c5ccccc5)cc4)c3)o2)C(=O)N2CCNCC2)cc1 (configuration not stated)
MIC (Streptococcus pyogenes): < 6 µM
IC50 (Escherichia coli [2]): 9 µM
MIC (Staphylococcus aureus [4]): < 6 µM
MIC (Proteus vulgaris): < 100 µM
MIC (Enterococcus faecalis): < 6 µM
MIC (Escherichia coli [5]): < 13 µM

CN(C)CCCOc1ccc(C(NC(=O)c2ccc(-c3cccc(NC(=O)c4nncs4)c3)o2)C(=O)N2CCNCC2)cc1 (configuration not stated)
inhibition at 100 µM (Escherichia coli [1]): < 75%
IC50 (Escherichia coli [2]): 13 µM
inhibition at 100 µM (Staphylococcus aureus [3]): < 75%

C=CCNC(=O)c1ccc2nc(O)c(O)nc2c1
Kd (Escherichia coli [6]): 150 µM

CN(C)CCCOc1ccc(C(NC(=O)c2ccc(-c3cccc(NC(=O)c4ccc5ccccc5c4)c3)o2)C(=O)N2CCNCC2)cc1 (configuration not stated)
MIC (Staphylococcus aureus [7]): < 100 µM
IC50 (Escherichia coli [2]): 10 µM
MIC (Escherichia coli [8]): < 50 µM

CN(C)CCCOc1ccc(C(NC(=O)c2ccc3nc(O)c(O)nc3c2)C(=O)N2CCNCC2)cc1 (configuration not stated)
inhibition at 100 µM (Escherichia coli [1]): < 75%
IC50 (Escherichia coli [2]): > 200 µM
inhibition at 100 µM (Staphylococcus aureus [3]): < 75%

CN(C)CCCOc1ccc(C(NC(=O)c2ccc(-c3cccc(N)c3)o2)C(=O)N2CCNCC2)cc1 (configuration not stated)
inhibition at 100 µM (Escherichia coli [1]): < 75%
IC50 (Escherichia coli [2]): > 100 µM
inhibition at 100 µM (Staphylococcus aureus [3]): < 75%

NCC[C@@H](NC(=O)c1ccc(-c2cccc(NC(=O)c3nncs3)c2)o1)C(=O)N1CCNCC1
inhibition at 100 µM (Escherichia coli [1]): < 75%
IC50 (Escherichia coli [2]): > 100 µM
inhibition at 100 µM (Staphylococcus aureus [3]): < 75%

NCC[C@@H](NC(=O)c1ccc(-c2cccc(NC(=O)c3cnccn3)c2)o1)C(=O)N1CCNCC1
inhibition at 100 µM (Escherichia coli [1]): < 75%
IC50 (Escherichia coli [2]): > 100 µM
inhibition at 100 µM (Staphylococcus aureus [3]): < 75%

NCC[C@@H](NC(=O)c1ccc(-c2ccccc2)o1)C(=O)N1CCNCC1
Kd (Escherichia coli [6]): 50 µM

CN(C)CCCOc1ccc(C(NC(=O)c2ccc(-c3cccc(NC(=O)c4cnc5ccccc5c4)c3)o2)C(=O)N2CCNCC2)cc1 (configuration not stated)
inhibition at 100 µM (Escherichia coli [1]): < 75%
IC50 (Escherichia coli [2]): 5 µM
inhibition at 100 µM (Staphylococcus aureus [3]): < 75%

NCC[C@@H](NC(=O)c1ccc(-c2cccc(NC(=O)c3ccccn3)c2)o1)C(=O)N1CCNCC1
inhibition at 100 µM (Escherichia coli [1]): < 75%
IC50 (Escherichia coli [2]): > 100 µM
inhibition at 100 µM (Staphylococcus aureus [3]): < 75%

CN(C)CCCOc1ccc(C(NC(=O)c2ccc(-c3cccc(NS(=O)(=O)c4ccc5nc(O)c(O)nc5c4)c3)o2)C(=O)N2CCNCC2)cc1 (configuration not stated)
inhibition at 100 µM (Escherichia coli [1]): < 75%
IC50 (Escherichia coli [2]): 33 µM
inhibition at 100 µM (Staphylococcus aureus [3]): < 75%

CN(C)CCCOc1ccc(C(NC(=O)c2ccc(-c3cccc(NC(=O)c4ccc(Cl)c(Cl)c4)c3)o2)C(=O)N2CCNCC2)cc1 (configuration not stated)
inhibition at 100 µM (Escherichia coli [1]): < 75%
IC50 (Escherichia coli [2]): 4 µM
inhibition at 100 µM (Staphylococcus aureus [3]): < 75%

CN(C)CCCOc1ccc(C(NC(=O)c2ccc(-c3cccc(NC(=O)c4ccc5nc(O)c(O)nc5c4)c3)o2)C(=O)N2CCNCC2)cc1 (configuration not stated)
inhibition at 100 µM (Escherichia coli [1]): < 75%
IC50 (Escherichia coli [2]): 3 µM
inhibition at 100 µM (Staphylococcus aureus [3]): < 75%

CN(C)CCCOc1ccc(C(NC(=O)c2ccc(-c3cccc(NC(=O)c4ccc5ncccc5c4)c3)o2)C(=O)N2CCNCC2)cc1 (configuration not stated)
inhibition at 100 µM (Escherichia coli [1]): < 75%
IC50 (Escherichia coli [2]): 6 µM
inhibition at 100 µM (Staphylococcus aureus [3]): < 75%

NCC[C@@H](NC(=O)c1ccc(-c2cccc(NC(=O)c3ccc4nc(O)c(O)nc4c3)c2)o1)C(=O)N1CCNCC1
inhibition at 100 µM (Escherichia coli [1]): < 75%
IC50 (Escherichia coli [2]): 14 µM
Kd (Escherichia coli [9]): 6.5 µM
inhibition at 100 µM (Staphylococcus aureus [3]): < 75%

Cc1nc2ccc(C(=O)Nc3cccc(-c4ccc(C(=O)N[C@H](CCN)C(=O)N5CCNCC5)o4)c3)cc2nc1C
inhibition at 100 µM (Escherichia coli [1]): < 75%
IC50 (Escherichia coli [2]): 15 µM
inhibition at 100 µM (Staphylococcus aureus [3]): < 75%

CN(C)CCCOc1ccc(C(NC(=O)c2ccc(-c3cccc(NC(=O)c4ccccc4I)c3)o2)C(=O)N2CCNCC2)cc1 (configuration not stated)
inhibition at 100 µM (Escherichia coli [1]): < 75%
IC50 (Escherichia coli [2]): 38 µM
inhibition at 100 µM (Staphylococcus aureus [3]): < 75%

CN(C)CCCOc1ccc(C(NC(=O)c2ccc(-c3cccc(NC(=O)c4ccc(Br)cc4)c3)o2)C(=O)N2CCNCC2)cc1 (configuration not stated)
IC50 (Escherichia coli [2]): 5 µM
MIC (Staphylococcus aureus [10]): < 25 µM
MIC (Escherichia coli [5]): < 13 µM

CCc1c(C)nc2ccc(C(=O)Nc3cccc(-c4ccc(C(=O)NC(C(=O)N5CCNCC5)c5ccc(OCCCN(C)C)cc5)o4)c3)cc2c1Cl (configuration not stated)
MIC (Escherichia coli [11]): < 25 µM
IC50 (Escherichia coli [2]): 0.78 µM
MIC (Staphylococcus aureus [12]): > 100 µM

CN(C)CCCOc1ccc(C(NC(=O)c2ccc(-c3cccc(NC(=O)CCCN(C)C)c3)o2)C(=O)N2CCNCC2)cc1 (configuration not stated)
inhibition at 100 µM (Escherichia coli [1]): < 75%
IC50 (Escherichia coli [2]): > 100 µM
inhibition at 100 µM (Staphylococcus aureus [3]): < 75%

CN(C)CCCOc1ccc(C(NC(=O)c2ccc(-c3cccc(NC(=O)c4ccc5cc(Br)ccc5c4)c3)o2)C(=O)N2CCNCC2)cc1 (configuration not stated)
IC50 (Escherichia coli [2]): 5 µM
MIC (Staphylococcus aureus [10]): < 25 µM
MIC (Escherichia coli [5]): < 13 µM

CN(C)CCCOc1ccc(C(NC(=O)c2ccc(-c3cccc(NC(=O)c4ccccc4)c3)o2)C(=O)N2CCNCC2)cc1 (configuration not stated)
inhibition at 100 µM (Escherichia coli [1]): < 75%
IC50 (Escherichia coli [2]): 40 µM
inhibition at 100 µM (Staphylococcus aureus [3]): < 75%

CN(C)CCCOc1ccc(C(NC(=O)c2ccc(-c3cccc(NC(=O)c4cnccn4)c3)o2)C(=O)N2CCNCC2)cc1 (configuration not stated)
inhibition at 100 µM (Escherichia coli [1]): < 75%
IC50 (Escherichia coli [2]): 15 µM
inhibition at 100 µM (Staphylococcus aureus [3]): < 75%

CN(C)CCCC(=O)Nc1cccc(-c2ccc(C(=O)N[C@H](CCN)C(=O)N3CCNCC3)o2)c1
inhibition at 100 µM (Escherichia coli [1]): < 75%
IC50 (Escherichia coli [2]): > 100 µM
inhibition at 100 µM (Staphylococcus aureus [3]): < 75%

CN(C)CCCOc1ccc(C(NC(=O)c2ccc(-c3cccc(NC(=O)c4ccc5nc(O)c(O)nc5c4)c3)o2)C(N)=O)cc1 (configuration not stated)
inhibition at 100 µM (Escherichia coli [1]): < 75%
IC50 (Escherichia coli [2]): 10 µM
inhibition at 100 µM (Staphylococcus aureus [3]): < 75%

Cc1nc2ccc(C(=O)Nc3cccc(-c4ccc(C(=O)NC(C(=O)N5CCNCC5)c5ccc(OCCCN(C)C)cc5)o4)c3)cc2nc1C (configuration not stated)
inhibition at 100 µM (Escherichia coli [1]): < 75%
IC50 (Escherichia coli [2]): 1 µM
inhibition at 100 µM (Staphylococcus aureus [3]): < 75%

CN(C)CCCOc1ccc(C(NC(=O)c2ccc(-c3cccc(NC(=O)c4ccccn4)c3)o2)C(=O)N2CCNCC2)cc1 (configuration not stated)
inhibition at 100 µM (Escherichia coli [1]): < 75%
IC50 (Escherichia coli [2]): 20 µM
inhibition at 100 µM (Staphylococcus aureus [3]): < 75%

NCC[C@@H](NC(=O)c1ccc(-c2cccc(NC(=O)c3cnc4ccccc4c3)c2)o1)C(=O)N1CCNCC1
inhibition at 100 µM (Escherichia coli [1]): < 75%
IC50 (Escherichia coli [2]): 46 µM
inhibition at 100 µM (Staphylococcus aureus [3]): < 75%
